Laboratory results published in patent publication US4156724A, “N-acylamino-alpha-arylacetamido cephalosporins and antibacterial compositions and methods containing them” (Sumitomo Chemical Company, Limited, priority 1974, dated 1979).
Values after ≈ are worked out from the molar mass of the structure shown.

How the values were obtained:
Assay type in all cases: cell-based
[1] = test system: Proteus vulgaris HX 19; experiment: Minimum Inhibitory Concentration, Proteus vulgaris HX 19; conditions: Proteus vulgaris HX 19; for MIC: HX19, read-out: Minimum Inhibitory Concentration
Procedure: (§1) anti-microbial activity tests were carried out on the compounds obtained in the Examples.

[2] = test system: Pseudomonas aeruginosa 104; experiment: Minimum Inhibitory Concentration, Pseudomonas aeruginosa 104; conditions: Pseudomonas aeruginosa 104; for MIC: read-out: Minimum Inhibitory Concentration
Procedure: as §1

[3] = test system: Staphylococcus aureus FS 289; experiment: Minimum Inhibitory Concentration, Staphylococcus aureus FS 289; conditions: Staphylococcus aureus FS 289, strain resistant to penicillin; for MIC: FS289, read-out: Minimum Inhibitory Concentration
Procedure: as §1
*Staphylococcus aureus FS 289: strain resistant to penicillin

[4] = test system: Staphylococcus aureus 209 P; experiment: Minimum Inhibitory Concentration, Staphylococcus aureus 209 P; conditions: Staphylococcus aureus 209 P; for MIC: read-out: Minimum Inhibitory Concentration
Procedure: as §1

[5] = test system: Enterobacter aerogeneus No. 75; experiment: Minimum Inhibitory Concentration, Enterobacter aerogeneus No. 75; conditions: Enterobacter aerogeneus No. 75; for MIC: read-out: Minimum Inhibitory Concentration
Procedure: as §1

[6] = test system: Escherichia coli NIHJ; experiment: Minimum Inhibitory Concentration, Escherichia coli NIHJ; conditions: Escherichia coli NIHJ; for MIC: read-out: Minimum Inhibitory Concentration
Procedure: as §1

[7] = test system: Serratia No. 72; experiment: Minimum Inhibitory Concentration, Serratia No. 72
Procedure: as §1

[8] = test system: Klebsiella pneumoniae 602; experiment: Minimum Inhibitory Concentration, Klebsiella pneumoniae 602; conditions: for MIC: Klebsiella pneumoniae, 602, Klebsiella pneumoniae 602, read-out: Minimum Inhibitory Concentration
Procedure: as §1

| Compound | MIC [1] [µg/mL] | MIC [2] [µg/mL] | MIC [3] [µg/mL] | MIC [4] [µg/mL] | MIC [5] [µg/mL] | MIC [6] [µg/mL] | MIC [7] [µg/mL] | MIC [8] [µg/mL] | Minimum Inhibitory Concentration [1] [µg/mL] | Minimum Inhibitory Concentration [2] [µg/mL] | Minimum Inhibitory Concentration [3] [µg/mL] | Minimum Inhibitory Concentration [4] [µg/mL] | Minimum Inhibitory Concentration [5] [µg/mL] | Minimum Inhibitory Concentration [6] [µg/mL] | Minimum Inhibitory Concentration [7] [µg/mL] | Minimum Inhibitory Concentration ([8]; Klebsiella pneumoniae 602) [µg/mL] |
| --- | --- | --- | --- | --- | --- | --- | --- | --- | --- | --- | --- | --- | --- | --- | --- | --- |
| Nc1cccc([C@@H](NC(=O)c2cnc3cccnc3c2O)C(=O)NC2C(=O)N3C(C(=O)O)=C(CSc4nncs4)CSC23)c1 (stereo partly drawn) [Example 64, 7-[D-α-(4-Hydroxy-1,5-naphthyridine-3-carbonamido)-α-m-aminophenylacetamido]-3-(1,3,4-thiadiazol-5-yl)thiomethyl-3-cephem-4-carboxylic acid] | 0.1 (≈ 0.154 µM) | 6.25 (≈ 9.6 µM) | 6.25 (≈ 9.6 µM) | 1.56 (≈ 2.4 µM) | 3.13 (≈ 4.81 µM) | 1.56 (≈ 2.4 µM) | 12.5 (≈ 19.2 µM) | 3.13 (≈ 4.81 µM) | – | – | – | – | – | – | – | – |
| Cn1nnnc1SCC1=C(C(=O)O)N2C(=O)C(NC(=O)[C@H](NC(=O)c3cnc4cccnc4c3O)c3ccc(O)c(Cl)c3)C2SC1 (some centres unmarked) [Example 132] | 0.1 (≈ 0.146 µM) | 6.25 (≈ 9.14 µM) | 3.13 (≈ 4.58 µM) | 0.78 (≈ 1.14 µM) | 3.13 (≈ 4.58 µM) | 3.13 (≈ 4.58 µM) | 25 (≈ 36.5 µM) | 1.56 (≈ 2.28 µM) | – | – | – | – | – | – | – | – |
| O=C(O)C1=C(CSc2nncs2)CSC2C(NC(=O)C(NC(=O)c3cnc4cccnc4c3O)c3ccc(O)c(O)c3)C(=O)N12 (centres unmarked) [Example 171] | 0.2 (≈ 0.3 µM) | 3.13 (≈ 4.69 µM) | 12.5 (≈ 18.7 µM) | 1.56 (≈ 2.34 µM) | 3.13 (≈ 4.69 µM) | 3.13 (≈ 4.69 µM) | 25 (≈ 37.4 µM) | 1.56 (≈ 2.34 µM) | – | – | – | – | – | – | – | – |
| CC(=O)OCC1=C(C(=O)O)N2C(=O)[C@@H](NC(=O)[C@H](NC(=O)c3cnccc3O)c3cccc(NC(N)=O)c3)[C@H]2SC1 [Example 2] | 0.39 (≈ 0.667 µM) | 6.25 (≈ 10.7 µM) | 6.25 (≈ 10.7 µM) | 0.39 (≈ 0.667 µM) | 25 (≈ 42.8 µM) | 12.5 (≈ 21.4 µM) | > 200 | 12.5 (≈ 21.4 µM) | – | – | – | – | – | – | – | – |
| NC(=O)Nc1ccc([C@@H](NC(=O)c2cnc3cccnc3c2O)C(=O)N[C@@H]2C(=O)N3C(C(=O)O)=C(CSc4cnn[nH]4)CS[C@H]23)cc1 [Example 23] | 0.2 (≈ 0.296 µM) | 3.13 (≈ 4.63 µM) | 6.25 (≈ 9.24 µM) | 1.56 (≈ 2.31 µM) | 3.13 (≈ 4.63 µM) | 3.13 (≈ 4.63 µM) | 12.5 (≈ 18.5 µM) | 1.56 (≈ 2.31 µM) | – | – | – | – | – | – | – | – |
| COc1cc(C(NC(=O)c2cnc3cccnc3c2O)C(=O)NC2C(=O)N3C(C(=O)O)=C(CSc4nnc(CO)s4)CSC23)ccc1O (centres unmarked) [Example 157] | 0.2 (≈ 0.281 µM) | 6.25 (≈ 8.78 µM) | 12.5 (≈ 17.6 µM) | 1.56 (≈ 2.19 µM) | 6.25 (≈ 8.78 µM) | 3.13 (≈ 4.4 µM) | 25 (≈ 35.1 µM) | 3.13 (≈ 4.4 µM) | – | – | – | – | – | – | – | – |
| NC(=O)Nc1ccc([C@@H](NC(=O)c2cnc3cccnc3c2O)C(=O)N[C@@H]2C(=O)N3C(C(=O)O)=C(CSc4nncs4)CS[C@H]23)cc1 [Example 21] | 0.2 (≈ 0.288 µM) | 3.13 (≈ 4.51 µM) | 3.13 (≈ 4.51 µM) | 0.78 (≈ 1.12 µM) | 3.13 (≈ 4.51 µM) | 3.13 (≈ 4.51 µM) | 12.5 (≈ 18 µM) | 1.56 (≈ 2.25 µM) | – | – | – | – | – | – | – | – |
| O=C(O)C1=C(CSc2ccc(O)nn2)CSC2C(NC(=O)C(NC(=O)c3cnc4cccnc4c3O)c3ccc(O)cc3)C(=O)N12 (centres unmarked) [Example 170] | 0.1 (≈ 0.151 µM) | 3.13 (≈ 4.73 µM) | 6.25 (≈ 9.45 µM) | 0.78 (≈ 1.18 µM) | 6.25 (≈ 9.45 µM) | 6.25 (≈ 9.45 µM) | 25 (≈ 37.8 µM) | 1.56 (≈ 2.36 µM) | – | – | – | – | – | – | – | – |
| CC(=O)OCC1=C(C(=O)O)N2C(=O)C(NC(=O)[C@H](NC(=O)c3cnc(O)nc3O)c3ccc(O)cc3)C2SC1 (some centres unmarked) [Example 119] | 0.39 (≈ 0.697 µM) | 6.25 (≈ 11.2 µM) | 6.25 (≈ 11.2 µM) | 0.39 (≈ 0.697 µM) | 25 (≈ 44.7 µM) | 6.25 (≈ 11.2 µM) | > 200 | 25 (≈ 44.7 µM) | – | – | – | – | – | – | – | – |
| Cn1nnnc1SCC1=C(C(=O)O)N2C(=O)C(NC(=O)C(NC(=O)c3cnc4sccc4c3O)c3cccc(NC(N)=O)c3)C2SC1 (centres unmarked) [Example 43] | 0.39 (≈ 0.56 µM) | 6.25 (≈ 8.97 µM) | 6.25 (≈ 8.97 µM) | 0.78 (≈ 1.12 µM) | 6.25 (≈ 8.97 µM) | 6.25 (≈ 8.97 µM) | 12.5 (≈ 17.9 µM) | 3.13 (≈ 4.49 µM) | – | – | – | – | – | – | – | – |
| CC(=O)OCC1=C(C(=O)O)N2C(=O)C(NC(=O)[C@H](NC(=O)c3nnc4ccccc4c3O)c3ccc(O)cc3)C2SC1 (stereo partly drawn) [Example 124, 7-[D-α-(4-hydroxycinnoline-3-carbonamido)-α-p-hydrxyphenylacetamido]cephalosporanic acid] | 0.78 (≈ 1.31 µM) | 12.5 (≈ 21.1 µM) | 6.25 (≈ 10.5 µM) | 0.78 (≈ 1.31 µM) | 25 (≈ 42.1 µM) | 12.5 (≈ 21.1 µM) | 100 (≈ 168 µM) | 12.5 (≈ 21.1 µM) | – | – | – | – | – | – | – | – |
| CC(=O)OCC1=C(C(=O)O)N2C(=O)[C@@H](NC(=O)[C@H](NC(=O)c3cnccc3O)c3ccc(NC(N)=O)cc3)[C@H]2SC1 [Example 1, 7-[D-α-(4-Hydroxypyridine-3-carboxyamido)-α-p-ureidophenylacetamido]cephalosporanic Acid] | 0.2 (≈ 0.342 µM) | 6.25 (≈ 10.7 µM) | 3.13 (≈ 5.35 µM) | 0.39 (≈ 0.667 µM) | 25 (≈ 42.8 µM) | 12.5 (≈ 21.4 µM) | > 200 | 12.5 (≈ 21.4 µM) | – | – | – | – | – | – | – | – |
| O=C(O)C1=C(CSc2ccc(O)nn2)CSC2C(NC(=O)C(NC(=O)c3cnccc3O)c3ccc(O)cc3)C(=O)N12 (centres unmarked) [Example 177] | 0.2 (≈ 0.328 µM) | 12.5 (≈ 20.5 µM) | 6.25 (≈ 10.2 µM) | 0.39 (≈ 0.639 µM) | 12.5 (≈ 20.5 µM) | 6.25 (≈ 10.2 µM) | 100 (≈ 164 µM) | 6.25 (≈ 10.2 µM) | – | – | – | – | – | – | – | – |
| CNc1nnc(SCC2=C(C(=O)O)N3C(=O)C(NC(=O)[C@H](NC(=O)c4cnc5cccnc5c4O)c4ccc(O)cc4)C3SC2)s1 (some centres unmarked) [Example 152] | 0.2 (≈ 0.294 µM) | 3.13 (≈ 4.6 µM) | 6.25 (≈ 9.18 µM) | 0.78 (≈ 1.15 µM) | 6.25 (≈ 9.18 µM) | 3.13 (≈ 4.6 µM) | 12.5 (≈ 18.4 µM) | 1.56 (≈ 2.29 µM) | – | – | – | – | – | – | – | – |
| Cc1nnc(SCC2=C(C(=O)O)N3C(=O)[C@@H](NC(=O)[C@H](NC(=O)c4cnccc4O)c4ccc(NC(N)=O)cc4)[C@H]3SC2)s1 [Example 12, 7-[D-α-(4-Hydroxypyridine-3-carboxyamido)-α-(p-ureidophenyl)acetamido]-3-(2-methyl-1,3,4-thiadiazol-5-yl)thiomethyl-3-cephem-4-carboxylic Acid] | 0.1 (≈ 0.152 µM) | 6.25 (≈ 9.52 µM) | 6.25 (≈ 9.52 µM) | 0.39 (≈ 0.594 µM) | 12.5 (≈ 19 µM) | 6.25 (≈ 9.52 µM) | 50 (≈ 76.1 µM) | 6.25 (≈ 9.52 µM) | – | – | – | – | – | – | – | – |
| O=C(O)C1=C(CSc2cnn[nH]2)CSC2C(NC(=O)[C@H](NC(=O)c3cnc4cccnc4c3O)c3ccc(O)cc3)C(=O)N12 (some centres unmarked) [Example 134] | 0.1 (≈ 0.158 µM) | 3.13 (≈ 4.93 µM) | 3.13 (≈ 4.93 µM) | 0.78 (≈ 1.23 µM) | 3.13 (≈ 4.93 µM) | 3.13 (≈ 4.93 µM) | 25 (≈ 39.4 µM) | 1.56 (≈ 2.46 µM) | – | – | – | – | – | – | – | – |
| CSc1ncc2c(O)c(C(=O)NC(C(=O)NC3C(=O)N4C(C(=O)O)=C(CSc5nnnn5C)CSC34)c3ccc(O)cc3)nnc2n1 (centres unmarked) [Example 173] | 0.78 (≈ 1.12 µM) | 6.25 (≈ 8.96 µM) | 12.5 (≈ 17.9 µM) | 0.78 (≈ 1.12 µM) | 25 (≈ 35.8 µM) | 12.5 (≈ 17.9 µM) | 50 (≈ 71.7 µM) | 6.25 (≈ 8.96 µM) | – | – | – | – | – | – | – | – |
| CC(=O)OCC1=C(C(=O)O)N2C(=O)C(NC(=O)[C@H](NC(=O)c3ccnnc3O)c3ccc(O)cc3)C2SC1 (some centres unmarked) [Example 116] | 0.2 (≈ 0.368 µM) | 6.25 (≈ 11.5 µM) | 3.13 (≈ 5.76 µM) | 0.39 (≈ 0.718 µM) | 25 (≈ 46 µM) | 12.5 (≈ 23 µM) | > 200 | 6.25 (≈ 11.5 µM) | – | – | – | – | – | – | – | – |
| Cn1nnnc1SCC1=C(C(=O)[O-])N2C(=O)C(NC(=O)C(NC(=O)c3cnc4cccnc4c3O)c3cccc(N)c3)C2SC1.[Na+] (centres unmarked) [Example 55] | – | – | – | – | – | – | – | – | 0.1 | 3.13 | 3.13 | 0.78 | 3.13 | 1.56 | 12.5 | 3.13 |
